Legend:
Experiment in all cases: Herbicidal activity, foliar application of single compounds (Test Examples 1 to 5)
Format in all cases: in vivo
Set-up in all cases: key: 0 means the state where the plants are as sound as before the application of the active compound; 1, 2, 3 and 4 mean varying degrees of the enfeebled state of the plants between 0 and 5; 1, 2, 3 and 4 mean varying degrees of the enfeebled state of the plants between 0 and 5; 1, 2, 3 and 4 mean varying degrees of the enfeebled state of the plants between 0 and 5; 1, 2, 3 and 4 mean varying degrees of the enfeebled state of the plants between 0 and 5; 5 is the state where the plants are withered or killed by application of the active compound
Settings in all cases: 3 weeks after application
Abutilon theophrosti = system: Abutilon theophrosti
Amaranthus mangostanus = system: Amaranthus mangostanus
Astragalus sinicus = system: Astragalus sinicus
[1] = system: Chenopodium album var. centrorubrum
Corn; Zea mays = system: Corn; Zea mays
Digitaria adscendens = system: Digitaria adscendens
Solanum nigrum = system: Solanum nigrum
Soybean; Glycine max = system: Soybean; Glycine max
[2] = Rate of Application 0.016 kg/ha
[3] = Rate of Application 0.031 kg/ha

## COC(=O)C(C)Oc1cc(Oc2ccc(C(F)(F)F)cc2Cl)ccc1C#N (stereo not drawn) [Compound (1), Methyl α-[2-cyano-5-(2-chloro-4-trifluoromethylphenoxy)phenoxy]propionate]
Abutilon theophrosti; [2]
  herbicidal activity, Plants g: 5
Abutilon theophrosti; [3]
  herbicidal activity, Plants g: 5
Amaranthus mangostanus; [2]
  herbicidal activity, Plants e: 5
Amaranthus mangostanus; [3]
  herbicidal activity, Plants e: 5
Astragalus sinicus; [2]
  herbicidal activity, Plants f: 5
Astragalus sinicus; [3]
  herbicidal activity, Plants f: 5
[1]; [2]
  herbicidal activity, Plants d: 5
[1]; [3]
  herbicidal activity, Plants d: 5
Corn; Zea mays; [2]
  herbicidal activity, Plants k: 5
Corn; Zea mays; [3]
  herbicidal activity, Plants k: 5
Digitaria adscendens; [2]
  herbicidal activity, Plants a: 4
Digitaria adscendens; [3]
  herbicidal activity, Plants a: 4
Solanum nigrum; [2]
  herbicidal activity, Plants h: 5
Solanum nigrum; [3]
  herbicidal activity, Plants h: 5
Soybean; Glycine max; [2]
  herbicidal activity, Plants j: 4
Soybean; Glycine max; [3]
  herbicidal activity, Plants j: 4

From patent publication EP0533925A1, “OPTICAL ISOMER OF R-FORM OF DIPHENYL ETHER DERIVATIVE AND HERBICIDE CONTAINING THE SAME AS ACTIVE INGREDIENT” (TEIJIN LIMITED, priority 1990, dated 1991)
